Assay: Serum cytokines by ELISA (innate immune response)
Type: in vivo, athymic nude mice (nu/nu)
Conditions: single injection 1 nmol, 6 and 24 h after the injection, n = 3, versus saline
Protocol: Athymic nude female mice (nu/nu) were injected with 1 nmol (∼0.753 mg/kg; n = 3) of cRGD-siRNA or 1 nmol of cRGD alone (∼0.045 mg/kg; n = 3) in 150 μl of saline. Mice (n = 3) injected with saline alone (200 μl) were used as negative controls. Six hours and 24 h after the injection, 300 μl of blood was drawn from each mouse and the serum was collected. Levels of serum cytokines IFN-α, IFN-γ, IL-6 and IL-12 were determined by ELISA, following manufacturer's recommendations (eBioscience/Affymetrix, USA).

Q: For N=C(N)NCCC[C@@H]1NC(=O)[C@H](CCCCNC(=O)COCCOCCNC(=O)CCN2C(=O)C=CC2=O)NC(=O)[C@@H](Cc2ccccc2)NC(=O)[C@H](CC(=O)O)NC(=O)CNC1=O [cRGD, cyclo(Arg-Gly-Asp-D-Phe-Lys[PEG-MAL])], which “serum levels of interferons α and γ, interleukins 6 and 12” value is on record?
A: No significant difference
